These are literature values, as cited in PMC7827648 (Molecules, 2021).

What is called IC50 is the concentration needed to halve the response being measured.

Set-up in all cases: method as in doi:10.1055/s-0036-1588486
Series [1] has as its system HCT116 (intestinal carcinoma) cells. As to conditions: read-out: IC50, 50% inhibition of the cell population growth, HCT116, data taken from ref [3]; cited from earlier work.
The subject of series [2] is A549 (lung adenocarcinoma) cells. As to conditions: read-out: IC50, 50% inhibition of the cell population growth, A549, data taken from ref [3]; cited from earlier work.
Series [3] deals with HeLa (adenocarcinoma of the cervix uterus) cells. As to conditions: read-out: IC50, 50% inhibition of the cell population growth, HeLa, data taken from ref [3]; cited from earlier work.
For series [4], the system named is RD (rhabdomyosarcoma) cells. As to conditions: read-out: IC50, 50% inhibition of the cell population growth, RD, data taken from ref [3]; cited from earlier work.

Turning to `CCOc1ccc(-c2c(C=O)cn3c2-c2cc(OCC)c(OCC)cc2CC3)cc1OCC` [Compound 1], the IC50 in series [1] is 11.8 ± 0.1 µM; in series [2] it was 19.7 ± 0.3 µM; in series [3], 44.5 ± 2 µM; in series [4], 21.3 ± 1.2 µM.
